Residue numbers refer to the chain shown, from its start.
How the values were obtained:
Assay in all cases: E. coli hemG growth inhibition by herbicide, AtPPO1 variant
Type in all cases: cell-based
Conditions in all cases: read-out: percentage growth inhibition
AtPPO1 V511N = biological target: T1, AtPPO1 V511N (Arabidopsis thaliana, UniProt P55826, V511N)
T1 construct: expressed in transfected cells; host or cells: E. coli BL21(DE3) hemG, pET24a plasmid
T1 sequence (P55826 35-537 V511N): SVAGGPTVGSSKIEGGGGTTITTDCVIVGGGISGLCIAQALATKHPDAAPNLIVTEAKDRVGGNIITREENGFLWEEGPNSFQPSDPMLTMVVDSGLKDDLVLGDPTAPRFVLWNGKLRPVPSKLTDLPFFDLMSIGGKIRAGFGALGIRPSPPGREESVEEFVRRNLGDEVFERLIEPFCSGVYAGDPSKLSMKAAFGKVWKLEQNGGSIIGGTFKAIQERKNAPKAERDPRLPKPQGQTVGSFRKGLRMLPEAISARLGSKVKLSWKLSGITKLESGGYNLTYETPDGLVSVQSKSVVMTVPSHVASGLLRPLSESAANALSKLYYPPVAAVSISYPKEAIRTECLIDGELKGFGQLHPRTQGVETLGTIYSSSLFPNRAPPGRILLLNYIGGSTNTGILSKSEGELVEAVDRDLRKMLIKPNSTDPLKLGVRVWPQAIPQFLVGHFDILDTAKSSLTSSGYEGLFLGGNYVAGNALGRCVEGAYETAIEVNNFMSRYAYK
In short: (§1)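 Read-out is OD600 at 24 h post inoculation, converted to percent growth inhibition relative to DMSO. The hemG-deleted BL21(DE3) host relied on the plasmid-borne AtPPO1 variant, induced with 0.1 mM IPTG, with 6.25 ppm herbicide 0 or E or 0.78 ppm herbicide B present at 37° C.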

AtPPO1 K173H = biological target: T2, AtPPO1 K173H (Arabidopsis thaliana, UniProt P55826, K173H)
T2 construct: expressed in transfected cells; host or cells: E. coli BL21(DE3) hemG (hemG replaced by CmR), pET24a plasmid
T2 sequence (P55826 35-537 K173H): T1 sequence (P55826 35-537 V511N) with K139H, N477V
In short: as §1

AtPPO1 Y361D = biological target: T3, AtPPO1 Y361D (Arabidopsis thaliana, UniProt P55826, Y361D)
T3 construct: expressed in transfected cells; host or cells: E. coli BL21(DE3) hemG (pET24a, T7 promoter)
T3 sequence (P55826 35-537 Y361D): T1 sequence (P55826 35-537 V511N) with Y327D, N477V
In short: as §1

AtPPO1 R284G = biological target: T4, AtPPO1 R284G (Arabidopsis thaliana, UniProt P55826, R284G)
T4 construct: expressed in transfected cells; host or cells: E. coli BL21(DE3) hemG (pET24a, T7 promoter)
T4 sequence (P55826 35-537 R284G): T1 sequence (P55826 35-537 V511N) with R250G, N477V
In short: as §1

Row | Structure (SMILES) | inhibition at 0.78 ppm (AtPPO1 V511N) | inhibition at 0.78 ppm (AtPPO1 K173H) | inhibition at 0.78 ppm (AtPPO1 Y361D) | inhibition at 0.78 ppm (AtPPO1 R284G) | inhibition at 6.25 ppm (AtPPO1 V511N) | inhibition at 6.25 ppm (AtPPO1 K173H) | inhibition at 6.25 ppm (AtPPO1 Y361D) | inhibition at 6.25 ppm (AtPPO1 R284G)
1 | C#CCN1C(=O)C(F)(F)Oc2cc(F)c(-n3c(=O)n(C)c(=S)n(C)c3=O)cc21 [Herbicide B, trifludimoxazin] | 20% | 29% | 20% | 35% |  |  |  | 
2 | CCOC(=O)[C@]1(C)CC(c2cc(-n3c(=O)n(C)c(=S)n(C)c3=O)c(F)cc2Cl)=NO1 [Herbicide D, ethyl (5S)-3-[2-chloro-5-(3,5-dimethyl-2,6-dioxo-4-thioxo-1,3,5-triazinan-1-yl)-4-fluoro-phenyl]-5-methyl-4H-isoxazole-5-carboxylate] |  |  |  |  | 22% | 34% | 33% | 37%
3 | CC(C)N(C)S(=O)(=O)NC(=O)c1cc(-n2c(=O)cc(C(F)(F)F)n(C)c2=O)c(F)cc1Cl [Herbicide E, saflufenacil] |  |  |  |  | 48% | 55% | 14% | 60%

From US20260297542A1, “HERBICIDE RESISTANT PLANTS” (SYNGENTA CROP PROTECTION AG, priority 2023, published 2026)
